Measured values from patent publication US20230303506A1, “COMPOSITIONS AND METHODS FOR THE PREVENTION AND/OR TREATMENT OF MITOCHONDRIAL DISEASE, INCLUDING FRIEDREICH'S ATAXIA” (Stealth BioTherapeutics Inc., priority 2019, published 2023).
“Also recorded” adds a separate entry of the source. Like-named read-outs stand apart in the source and are kept apart here.

Legend:
[1] = system: frataxin deficient fibroblasts (GM03665); experiment: cells; assay type: cell-based
[2] = system: HepG2 human hepatocarcinoma cells; experiment: Rotenone ATP Assay (Complex I Assay); assay type: cell-based; conditions: for Complex I by-pass activity / restoring ATP production, in words: summary of rotenone assays; for EC50: HepG2, 50 micromolar rotenone, 60 minutes
Method: This assay has been adapted from Haefeli R H, Erb M, Gemperli A C, Robay D, Courdier Fruh I, et al. (2011) NQO1-Dependent Redox Cycling of Idebenone: Effects on Cellular Redox Potential and Energy Levels. PLoS ONE 6(3): e17963. HepG2 human hepatocarcinoma cells were co-incubated with the electron transport chain Complex I toxin rotenone +/− compounds of interest and the corresponding effect on ATP synthesis was measured with a bioluminescent substrate.
In brief, HepG2 cells were plated at 25,000 cells per well in low glucose (1 gram/Liter) DMEM medium+10% fetal calf serum and incubated for 24 hours. The following day, the media was decanted and subsequently replaced with glucose free/serum free DMEM which has been supplemented with 50 micromolar rotenone and compound of interest. Serial dilutions of compound were prepared in 3× dilutions beginning at 25 micromolar. The cells were incubated for 60 minutes in a humidified tissue culture incubator. Following incubation, ATP levels were quantified via bioluminescent assay (Promega […] Glo Assay kit) and readings were captured on a standard microplate reader.
ATP bioluminescence is plotted versus the log of compound of interest and data were used to generate EC50 values. Curve fitting was performed using a sigmoidal dose response curve fit function (GraphPad Prism software).
Robustness of curve fit was assessed as a quality control measure, with an R squared value of at least 0.80 being required for a successful curve fit. Compounds of interest showing an increase in ATP bioluminescence relative to vehicle control were verified in an independent biological replicate of n=3 technical replicates per dose.
This assay is a direct measure of the ability of compounds of interest to restore ATP production under conditions of inhibition of Complex I of the mitochondrial electron transport chain. As the majority of ATP produced via the electron transport chain is thought to derive from Complex I activity, significant impairment in Complex I function has dire biological consequences. Of note, Complex I mutations are thought to drive pathophysiology in multiple mitochondrial diseases, including Leigh syndrome and Leber's Hereditary Optic Neuropathy (LHON), while diminished Complex I activity and the resultant attenuation of ATP production has been shown in neurodegenerative diseases, including Friedreich's Ataxia, Parkinson's Disease and Huntington's Disease.

GM03665 cells = experiment: RSL3 Toxicity Assay (RSL3 Assay); assay type: cell-based, human; conditions: for EC50: 2 μM RSL3, 24 hours, MTT
Method: In brief, GM03665 cells (Coriell Institute) were seeded in 96-well plates (Sarstedt) in DMEM cell culture media containing 10% Fetal Bovine serum and 1% Penicillin-Streptomycin (Pen-Strep) antibiotic mix at the amount of 2×10^4/mL (100 μL or 2×10^3 cells per well). Cells were left to rest overnight at 37° C. in a humidified atmosphere with 5% CO2 to allow attachment of the cells to the culture plate. Test compounds were prepared as DMSO stocks (10 mM) and were serially diluted in cell culture media to obtain 2× working solutions. Cell media was discarded and replaced by 50 μL of test compound solutions or cell media with vehicle for control wells. Within 15 minutes, 2× working solution (4 μM) of 1S,3R-RSL3 (CAS #1219810-16-8, Sigma-Aldrich) (diluted from 5 mM DMSO stock in cell culture media) was added. Final reaction volume was 100 μL and final DMSO concentration in reaction was kept below 0.2% (v/v) and equal in all wells. Final RSL3 concentration was 2 μM and test compound final concentrations in reaction were up to 1000 nM. After 24 hours of incubation cell viability was assessed by MTT test. MTT (Sigma-Aldrich) solution 1 mg/mL in 1×PBS (pH=7,4) was prepared 1 hour before the assay and filtered through Filtropur S 0.2 filters (Sarstedt). Cell media with test compounds was discarded and 100 μL of MTT solution was added to cells. The plates were incubated for 2 hours at +37° C. Thereafter, the MTT solution was removed and 100 μL of isopropanol was added to dissolve sediment. Absorption at 570 and 650 nm was measured using Hidex Sense microplate reader.

HepG2 cells = experiment: Rotenone Oxygraph Assay (high-resolution respirometry of intact HepG2 cells); assay type: cell-based, human; conditions: Table 7; 1 μM rotenone, compound 10 μM
Method: The Oxygraph-2 k (O2k, OROBOROS INSTRUMENTS, Austria) was used for measurements of respiration of intact cells. The respirometry was performed in Dulbecco's Modified Eagle Medium (DMEM) high glucose without supplements. All experiments were performed at 37° C.
HepG2 cells (ATCC collection code HB-8065™) were cultured in 10 cm^2 culture dishes in DMEM high glucose medium supplemented with 10% fetal bovine serum (FBS) and 100 units/mL penicillin and 100 μg/mL streptomycin until approximately 90% confluence was reached. Immediately prior to performing the respirometric assay, the cells were washed with media without FBS, trypsinized and resuspended in DMEM high glucose without FBS.
The final concentration of intact cells in the O2k-chamber was 0.5·10^6/mL. After stabilization of respiration, the Complex I inhibitor, rotenone, at 1 μM final concentration was added to inhibit electron flux via Complex I. Then, compound to be tested was added at 10 μM final concentration, and the change in respiration rate of intact cells was monitored.

Nrf-2 = Nrf-2 Activation Assay (Nrf-2 Assay); assay type: cell-based, human; conditions: for activation of Nrf-2 pathway, in words: FIG. 7; for Nrf-2 Assay: Table 7, 1 μM compound, 24 hours, qPCR of Nrf-2 responsive genes
Method: This assay was developed internally and was designed to determine if the novel test compounds disclosed herein active Nrf-2 and thereby promote resolution of inflammation by the mechanism believed to be responsible for the activity of omaveloxolone.
Briefly, GM03665 Friedreich Ataxia patient fibroblasts were grown in 12 Well Plates (TC Cell+F) (Sarstedt, Numbrecht Germany), at a density of […] in DMEM/F12 (Gibco, ThermoFisher Scientific, Waltham, MA, USA) cell media supplemented with 10% FBS and 1% Pen/Strep. Cells were left to rest overnight at 37° C. in a humidified atmosphere with 5% CO2 to allow attachment of the cells to the culture plate. Before continuing assay visual inspection of each well was done by light microscopy to detect any possible bacterial and fungal contamination. […] After incubation, cell media was removed and total RNA from the cells was isolated using E.Z.N.A.® Total RNA Kit I (Omega Bio-tek, Norcross, Georgia, USA) spin columns, and first-strand cDNA synthesis was carried out using a High Capacity cDNA Reverse Transcription Kit (Applied Biosystems™, Foster City, CA) following the manufacturer's instructions. qPCR analysis of gene expression was performed by mixing SYBR® Green Master Mix (Applied Biosystems™) with synthesized cDNA and forward and reverse primers. […] (60 cycles), and 95° C. for 60 seconds, followed by melt curve analysis at 72-95° C., 0.3° C./sec. The relative expression levels for each gene were calculated with the ΔΔCt method and normalized to the expression of REEP5 and SNRPD3 genes.

lipoxygenase-15 enzyme = lipoxygenase-15 enzyme (Glycine max (Soybean) (Glycine hispida), UniProt P08170); experiment: Lipoxygenase-15 Assay (LO-15 Assay); conditions: reduced form of compounds

Row | Molecule | activity in BSO assay (protection from BSO induced cell death), in words [1] | activity in both the BSO Assay and the Rotenone ATP Assay, in words ([2]; BSO Assay and Rotenone ATP Assay taken together) | Complex I by-pass activity / restoring ATP production, in words [2] | activity in RSL3 assay (protection from RSL3 induced ferroptosis), in words (GM03665 cells) | Rotenone Oxygraph Assay % Increase (HepG2 cells) | activation of Nrf-2 pathway, in words (Nrf-2) | Nrf-2 Assay (Nrf-2) | activity in LO-15 assay, in words (lipoxygenase-15 enzyme) | EC50 ([1]; Table 7, FA patient fibroblasts, 10 mM BSO, 48 hrs, MTT, read-out: BSO Assay) [nM] | EC50 ([2]; ATP bioluminescence, read-out: EC50 Rotenone ATP Assay) [nM] | EC50 ([2]; Table 7, read-out: Rotenone ATP Assay EC50) [nM] | EC50 (GM03665 cells; Table 3, mean of at least three measurements, unit printed in Table 7, read-out: RSL3 Assay EC50, Mean) [nM] | EC50 (GM03665 cells; Table 7, read-out: RSL3 Assay EC50) [nM]
1 | CC1=C(C)C(=O)C(CC[C@](C)(O)CCCCCCCCC(F)(F)F)=C(C)C1=O [Compound N, (R)-2,3,5-trimethyl-6-(12,12,12-trifluoro-3-hydroxy-3-methyldodecyl)cyclo-hexa-2,5-diene-1,4-dione] | able to prevent ferroptotic cell death; also recorded: active | possess both activities | active | active; also recorded: able to prevent ferroptotic cell death | 44.8 +/− 10.3% | do not activate | Inactive | active; also recorded: effective inhibitors |  |  |  |  | 
2 | (R)-2-(3-hydroxy-3-methyl-4-(3-(trimethylsilyl)propoxy)butyl)-3,5,6-trimethylcyclohexa-2,5-diene-1,4-dione [Compound M] | able to prevent ferroptotic cell death; also recorded: active |  | active | active; also recorded: able to prevent ferroptotic cell death | 56.6 +/− 11.3% | do not activate | Inactive | best result; also recorded: effective inhibitors | 61.2 | 1000 to 3000 | 1340 | 41.2 | 41.2
